Laboratory results from ChEMBL document CHEMBL1201862, “PubChem BioAssay data set” (2004).
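Cultured in 96-well plates, cells were exposed to test compound for 48 hours across five concentrations. GI50 is the concentration that inhibits growth by half.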 The source made the active and inactive calls. Rule as the data show it: active = GI50 up to about 1.1 µM and inactive = higher.

What was measured:
Assay in all cases: NCI tumour cell line growth inhibition, 48 h
A498 = system: A498
ACHN = system: ACHN
CCRF-CEM = system: CCRF-CEM
HCC 2998 = system: HCC 2998
HCT-15 = system: HCT-15
HT-29 = system: HT-29
M14 = system: M14
MOLT-4 = system: MOLT-4
NCI-H226 = system: NCI-H226
NCI-H23 = system: NCI-H23
OVCAR-5 = system: OVCAR-5
RPMI-8226 = system: RPMI-8226
SF-268 = system: SF-268
SF-539 = system: SF-539
SK-MEL-28 = system: SK-MEL-28
SN12C = system: SN12C
SR = system: SR
UACC-257 = system: UACC-257
MCF7 = system: MCF7
Hs-578T = system: Hs-578T

Compound	GI50 (A498)	GI50 (ACHN)	GI50 (CCRF-CEM)	GI50 (HCC 2998)	GI50 (HCT-15)	GI50 (HT-29)	GI50 (M14)	GI50 (MOLT-4)	GI50 (NCI-H226)	GI50 (NCI-H23)	GI50 (OVCAR-5)	GI50 (RPMI-8226)	GI50 (SF-268)	GI50 (SF-539)	GI50 (SK-MEL-28)	GI50 (SN12C)	GI50 (SR)	GI50 (UACC-257)	GI50 (MCF7)	GI50 (Hs-578T)
O=C1C(=O)N(c2ccc(Cl)cc2Cl)C(=O)C(=O)C1c1nc2ccccc2o1	> 100 µM (inactive)	> 100 µM (inactive)	93.8 µM (inactive)	> 100 µM (inactive)	> 100 µM	> 100 µM (inactive)	> 100 µM (inactive)	> 100 µM (inactive)	> 100 µM (inactive)	> 100 µM (inactive)	> 100 µM (inactive)	> 100 µM (inactive)	> 100 µM (inactive)	> 100 µM (inactive)	> 100 µM (inactive)	> 100 µM (inactive)	> 100 µM (inactive)	> 100 µM (inactive)		
c1ccc2c3nnc(c2c1)SCCCSc1nnc(c2ccccc12)SCCCS3	61.1 µM (inactive)	72.3 µM (inactive)	> 100 µM (inactive)	> 100 µM (inactive)	> 100 µM	> 100 µM (inactive)	90.8 µM (inactive)	> 100 µM (inactive)	24.3 µM (inactive)	71.1 µM (inactive)	> 100 µM (inactive)	> 100 µM (inactive)	18.9 µM (inactive)	11 µM (inactive)	44.7 µM (inactive)	> 100 µM (inactive)	84.1 µM (inactive)	> 100 µM (inactive)	> 100 µM (inactive)	
O=C1C(Cl)=C(N[C@@H](Cc2ccccc2)C(=O)OCc2ccccc2)C(=O)c2c(O)ccc(O)c21	7.33 µM (inactive)	4.05 µM (inactive)	0.485 µM (active)	> 10 µM (inactive)	1.19 µM	4 µM (inactive)	3.8 µM (inactive)		5.3 µM (inactive)	4.42 µM (inactive)	6.18 µM (inactive)	> 10 µM (inactive)	2.91 µM (inactive)	2.42 µM (inactive)	6.34 µM (inactive)	3.93 µM (inactive)		> 10 µM (inactive)		4.89 µM (inactive)
Cc1cc(=O)n2c(cc3cccccc32)n1	> 100 µM (inactive)	> 100 µM (inactive)	> 100 µM (inactive)	> 100 µM (inactive)	> 100 µM	> 100 µM (inactive)	> 100 µM (inactive)	> 100 µM (inactive)	> 100 µM (inactive)	> 100 µM (inactive)	> 100 µM (inactive)	> 100 µM (inactive)	> 100 µM (inactive)	> 100 µM (inactive)	> 100 µM (inactive)	> 100 µM (inactive)	> 100 µM (inactive)	> 100 µM (inactive)		
Cc1ccc(NC(=O)CC/C(CC(=O)C(C)(C)C)=N/Nc2nnc(C)n2N)cc1C	> 100 µM (inactive)	> 100 µM (inactive)	65 µM (inactive)	> 100 µM (inactive)	> 100 µM	> 100 µM (inactive)	> 100 µM (inactive)	66.5 µM (inactive)	> 100 µM (inactive)	> 100 µM (inactive)	> 100 µM (inactive)	> 100 µM (inactive)	> 100 µM (inactive)	> 100 µM (inactive)	> 100 µM (inactive)	> 100 µM (inactive)	94.8 µM (inactive)	> 100 µM (inactive)		
CC(C)(C)NC(=O)C12C3C4C1C1C2C3C41I (configuration not stated)	> 100 µM (inactive)		> 100 µM (inactive)	> 100 µM (inactive)	> 100 µM	> 100 µM (inactive)		> 100 µM (inactive)	> 100 µM (inactive)	> 100 µM (inactive)	> 100 µM (inactive)	> 100 µM (inactive)		> 100 µM (inactive)	> 100 µM (inactive)	> 100 µM (inactive)	> 100 µM (inactive)	> 100 µM (inactive)		
COC(=O)c1cc(-c2ccc(OC)c(OC)c2)oc1-c1ccc(OC)c(OC)c1	18.7 µM (inactive)	35.2 µM (inactive)	> 100 µM (inactive)	81.8 µM (inactive)	47.2 µM	35.8 µM (inactive)	55.8 µM (inactive)	32.7 µM (inactive)	34.3 µM (inactive)	26.6 µM (inactive)	36.1 µM (inactive)	33.3 µM (inactive)	49.7 µM (inactive)	21.2 µM (inactive)	57.9 µM (inactive)	26.8 µM (inactive)	28.6 µM (inactive)	37.6 µM (inactive)		
CSc1ccc(-c2cn3ccsc3n2)c(O)c1	> 86.3 µM (inactive)	> 82.6 µM (inactive)	16.1 µM (inactive)	> 60 µM (inactive)	17.6 µM	83.2 µM (inactive)	> 59.6 µM (inactive)	30.5 µM (inactive)	> 100 µM (inactive)	48.3 µM (inactive)	> 92.9 µM (inactive)	13.8 µM (inactive)	36.7 µM (inactive)	32.7 µM (inactive)	> 100 µM (inactive)	> 79.1 µM (inactive)	40.6 µM (inactive)	> 24.2 µM (inactive)		
CCOC(=O)c1ccc(NC(=O)SCCC(=O)O)cc1	> 100 µM (inactive)	51.1 µM (inactive)	> 100 µM (inactive)	> 100 µM (inactive)	> 100 µM	52.5 µM (inactive)	> 100 µM (inactive)	23 µM (inactive)	3.15 µM (inactive)	> 100 µM (inactive)	> 100 µM (inactive)	> 100 µM (inactive)	0.426 µM (active)	> 100 µM (inactive)	> 100 µM (inactive)	> 100 µM (inactive)	> 100 µM (inactive)	> 100 µM (inactive)		
O=c1c(Br)cc2nc3ccccc3sc-2c1Br	> 100 µM (inactive)	> 100 µM (inactive)	23.8 µM (inactive)	> 100 µM (inactive)	> 68.7 µM	> 100 µM (inactive)	> 100 µM (inactive)	22.2 µM (inactive)	> 100 µM (inactive)	29.9 µM (inactive)	> 100 µM (inactive)	18.5 µM (inactive)	72.1 µM (inactive)	> 83.9 µM (inactive)	> 100 µM (inactive)	> 100 µM (inactive)	53.5 µM (inactive)	31.3 µM (inactive)		
CC1(C)O[C@@H]2[C@@H](COC(C)(C)O[C@H]2C2SCCCS2)O1	> 100 µM (inactive)	> 100 µM (inactive)		> 100 µM (inactive)	> 100 µM	> 100 µM (inactive)	> 100 µM (inactive)	> 100 µM (inactive)		> 100 µM (inactive)	> 100 µM (inactive)	> 100 µM (inactive)	> 100 µM (inactive)	> 100 µM (inactive)	> 100 µM (inactive)	> 100 µM (inactive)			> 100 µM (inactive)	
CCOC(=O)/C(=C\NC[C@@H](C)O)c1nc2ccccc2[nH]1	55 µM (inactive)	32.4 µM (inactive)		37.4 µM (inactive)	73.3 µM	71.3 µM (inactive)	56 µM (inactive)	0.238 µM (active)		54.5 µM (inactive)	> 100 µM (inactive)	29.1 µM (inactive)	60.7 µM (inactive)	> 100 µM (inactive)	57.3 µM (inactive)	93.1 µM (inactive)	0.0473 µM (active)	56 µM (inactive)	60.8 µM (inactive)	
O=C1c2ccccc2C2CCC1c1ccccc12 (configuration not stated)	58.6 µM (inactive)	25.6 µM (inactive)	23.9 µM (inactive)	53.1 µM (inactive)	30.6 µM	29.9 µM (inactive)	36.5 µM (inactive)	18 µM (inactive)	45.6 µM (inactive)	24 µM (inactive)	> 100 µM (inactive)	16 µM (inactive)	31.1 µM (inactive)	64 µM (inactive)	32.9 µM (inactive)	43.8 µM (inactive)	20.5 µM (inactive)	25.3 µM (inactive)		
Cc1ccc(/C=C/C(=O)CCN(C)C)cc1	> 100 µM (inactive)	18.5 µM (inactive)	24.7 µM (inactive)	17.7 µM (inactive)	15.5 µM	18.2 µM (inactive)	21.5 µM (inactive)	23.2 µM (inactive)	19.2 µM (inactive)	27.9 µM (inactive)	33.8 µM (inactive)	19.3 µM (inactive)	24.9 µM (inactive)	16.9 µM (inactive)	19.4 µM (inactive)	16.9 µM (inactive)	21.4 µM (inactive)	14.7 µM (inactive)		
COC(=O)[C@H](Cc1c[nH]c2ccccc12)NC(=O)c1ccc(CNC(=O)/C(C)=C/c2ccccc2)cc1	22.6 µM (inactive)	52.5 µM (inactive)	41 µM (inactive)	15.6 µM (inactive)	48.1 µM	> 100 µM (inactive)	15.9 µM (inactive)	21.5 µM (inactive)	> 100 µM (inactive)	25.7 µM (inactive)	> 100 µM (inactive)	46 µM (inactive)	97.5 µM (inactive)	> 100 µM (inactive)	18.2 µM (inactive)	> 100 µM (inactive)	28.6 µM (inactive)	18 µM (inactive)	29.2 µM (inactive)	
CC(C)c1cccc(=O)c(O)c1 [HINOKITIOL]	44.1 µM (inactive)	3.33 µM (inactive)	2.79 µM (inactive)	9.23 µM (inactive)	5.14 µM	4.27 µM (inactive)	8.49 µM (inactive)	3.18 µM (inactive)	11 µM (inactive)	8.09 µM (inactive)	15.7 µM (inactive)	7.93 µM (inactive)	6.37 µM (inactive)	5.31 µM (inactive)	18.9 µM (inactive)	11.2 µM (inactive)	2.84 µM (inactive)	4.1 µM (inactive)		
